Measured values: US3985790A, “Phenoxyalkane carboxylic acid derivative” (priority 1974, dated 1976)
Like-named read-outs stand apart in the source and are kept apart here.

Tests used:
[1] = test system: serum cholesterol and serum triglyceride levels; assay type: in vivo, SPF-Wistar rats; conditions: 14 days
Text: (§1) The therapeutic effectiveness of the salt of this invention ("clofibrinate") was compared with that of the fundamental parent substance, namely the 4-(p-chlorophenoxyacetylamino)-benzoic acid diethylaminoethyl ester, as well as clofibrate, that is the ethyl ester of clofibrinic acid, using SPF-Wistar rats. In these tests the compound in a vehicle was supplied orally for a period of 14 days. Twenty-four hours after the last dose blood analyses were made for determining the serum cholesterol and serum triglyceride levels.
In a first series of experiments, the effectiveness was studied in rats having normal blood lipid levels which were made hyperlipemic by means of a special fatty diet 1. This cholesterol-rich fatty diet 1 corresponded to that of Berger et al., Proc. Soc. Ex. Biol. (1969) 132,293.

[2] = test system: serum cholesterol and serum triglyceride levels; assay: Antilipemic effect in young male rats, fatty diet 2 (high cholesterol-high fat), 14 days oral; assay type: in vivo, SPF-Wistar rats; conditions: fatty diet 2, 250 mg/kg oral
Text: In these tests the compound in a vehicle was supplied orally for a period of 14 days. Twenty-four hours after the last dose blood analyses were made for determining the serum cholesterol and serum triglyceride levels. In a second series young male rats of 80-90 grams weight were fed a fat and cholesterol-rich diet (fatty diet 2). The statistical significance (p) of the results is also given.

[3] = test system: blood serum cholesterol and lipid levels; assay: Effect on blood serum cholesterol and lipid levels, tolerability and toxicity, general statements; assay type: in vivo, SPF-Wistar rats; conditions: hyperlipemic conditions
Text: as §1
In a first series of experiments, the effectiveness was studied in rats having normal blood lipid levels which were made hyperlipemic by means of a special fatty diet 1. This cholesterol-rich fatty diet 1 corresponded to that of Berger et al., Proc. Soc.
In a second series young male rats of 80-90 grams weight were fed a fat and cholesterol-rich diet (fatty diet 2). The statistical significance (p) of the results is also given.

[4] = Acute toxicity (LD50); conditions: mouse, in vivo
[5] = test system: human lipid metabolism; conditions: French Pat. No. 1,552,793; cited from earlier work
[6] = fatty diet 1, 1000 mg/kg oral, 3 of 10 animals died

SMILES: CCOC(=O)C(C)(C)Oc1ccc(Cl)cc1 [Clofibrate, ethyl-2-(p-chlorophenoxy)-isobutyrate]
- Decrease of cholesterol ([1]; fatty diet 1, 250 mg/kg oral): 3.0%
- Decrease of triglycerides ([1]; fatty diet 1, 250 mg/kg oral): 12.5%
- Final Value Cholest. ([1]; fatty diet 1, 250 mg/kg oral): 347.9 mg%
- Final Value Triglycerides ([1]; fatty diet 1, 250 mg/kg oral): 75.6
- Decrease of cholesterol [1, 6]: 31.6%
- Final Value Cholest. [1, 6]: 245.4 mg%
- Final Value Triglycerides [1, 6]: 120.3
- Decrease of triglycerides [2]: 20.6%
- Final Value Cholest. [2]: 133.3 mg %
- Final Value Triglycerides [2]: 107.7
- effectiveness against elevated cholesterol and elevated triglyceride levels [3]: only slightly effective under hyperlipemic conditions or even fails completely
- LD50 [4]: 1150 mg/kg

SMILES: CCN(CC)CCOC(=O)c1ccc(NC(=O)COc2ccc(Cl)cc2)cc1 [Parent Compound, 4-(p-chlorophenoxyacetylamino)-benzoic acid diethylaminoethyl ester]
- Decrease of cholesterol ([1]; fatty diet 1, 100 mg/kg oral): 7.8%
- Final Value Cholest. ([1]; fatty diet 1, 100 mg/kg oral): 330.6 mg%
- Final Value Triglycerides ([1]; fatty diet 1, 100 mg/kg oral): 114.9
- Decrease of cholesterol ([1]; fatty diet 1, 250 mg/kg oral): 24.9%
- Final Value Cholest. ([1]; fatty diet 1, 250 mg/kg oral): 269.4 mg%
- Final Value Triglycerides ([1]; fatty diet 1, 250 mg/kg oral): 101.6
- influence on human lipid metabolism [5]: have an influence on human lipid metabolism
